The text below walks through data of ChEMBL document CHEMBL1145227, “5-Amidinobenzo[b]thiophenes as dual inhibitors of factors IXa and Xa” (Bioorg Med Chem Lett, 2005).

For one test, the target named is Prothrombin (Homo sapiens, UniProt P00734). In words: Inhibitory constant against human thrombin.
In the next test the target is Coagulation factor IX (Homo sapiens, UniProt P00740). In words: Inhibitory constant against human purified Coagulation factor IXa (fIXa).
The target of another test is Coagulation factor X (Homo sapiens, UniProt P00742). In words: Inhibitory constant against human purified Coagulation factor Xa (fXa).
Chain of Coagulation factor X (P00742 41-179 limits assumed): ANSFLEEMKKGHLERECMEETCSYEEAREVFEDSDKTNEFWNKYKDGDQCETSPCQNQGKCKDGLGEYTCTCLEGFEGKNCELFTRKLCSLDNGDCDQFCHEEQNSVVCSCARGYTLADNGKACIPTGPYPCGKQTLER
Chain of Coagulation factor X (P00742 235-488 limits assumed): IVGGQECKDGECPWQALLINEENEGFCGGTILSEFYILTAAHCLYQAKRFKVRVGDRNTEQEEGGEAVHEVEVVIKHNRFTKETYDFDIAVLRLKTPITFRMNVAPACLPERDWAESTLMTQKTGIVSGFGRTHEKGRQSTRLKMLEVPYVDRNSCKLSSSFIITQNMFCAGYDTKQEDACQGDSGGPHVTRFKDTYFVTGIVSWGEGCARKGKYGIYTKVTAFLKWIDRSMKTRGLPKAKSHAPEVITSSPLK
The target of a further test is Trypsin (Homo sapiens, UniProt P07477+P07478+P35030). In words: Inhibitory constant against human trypsin. The class given is protein assay.

SMILES strings stand for the structures.

Chain of Coagulation factor IX (P00740 47-191 limits assumed): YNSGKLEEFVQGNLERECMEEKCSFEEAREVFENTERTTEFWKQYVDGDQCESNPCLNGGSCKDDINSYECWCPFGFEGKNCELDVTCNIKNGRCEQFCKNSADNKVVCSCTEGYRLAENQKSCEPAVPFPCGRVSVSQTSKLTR
Chain of Coagulation factor IX (P00740 227-461 limits assumed): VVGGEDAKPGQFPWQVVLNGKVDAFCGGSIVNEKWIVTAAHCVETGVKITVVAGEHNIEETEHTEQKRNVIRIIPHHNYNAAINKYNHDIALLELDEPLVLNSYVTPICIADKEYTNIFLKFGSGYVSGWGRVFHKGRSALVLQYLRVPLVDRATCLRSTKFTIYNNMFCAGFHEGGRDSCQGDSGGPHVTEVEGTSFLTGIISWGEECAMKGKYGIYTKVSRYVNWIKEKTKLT

For the compound `N=C(N)c1ccc2scc(C(Cc3ccc(N)cc3)C(=O)Nc3ccc(-n4cnc5ccccc54)cc3)c2c1.O=C(O)C(F)(F)F` (centres undefined), the Ki on Prothrombin is 4200 nM; at Coagulation factor IX, 74 nM; on Coagulation factor X, 47 nM; on Trypsin, over 4200 nM.
Turning to `CCOC(=O)[C@@H]1CCCCC1NC(=O)C(Cc1ccccc1)C1=CS(=O)(=O)c2ccc(C(=N)N)cc21` (some centres undefined), the Ki is 8530 nM at Coagulation factor IX, over 9000 nM on Coagulation factor X and over 4200 nM on Trypsin.
On the same counts, the results for `COC(=O)[C@@H]1CCCCC1NC(=O)C(Cc1ccccc1)c1c[nH]c2ccc(C(=N)N)cc12` (some centres undefined) are 340 nM, 19 nM and 1500 nM.
Consider `N#Cc1ccc(NC(=O)C(Cc2ccccc2)c2csc3ccc(C(=N)N)cc23)cc1` (centres undefined), for which the Ki on Coagulation factor IX is 1730 nM; at Coagulation factor X it was over 8000 nM.
As for `CCOC(=O)[C@@H]1CCCCC1NC(=O)C(Cc1ccccc1)c1coc2ccc(C(=N)N)cc12` (some centres undefined), the Ki on Coagulation factor IX was 1190 nM; at Coagulation factor X it was 270 nM; at Trypsin it was over 4200 nM.
As to `N=C(N)c1ccc2scc([C@H](Cc3ccccc3)C(=O)NC3CCCC[C@H]3C(=O)NCc3ccccc3)c2c1` (some centres undefined), the values for the Ki on Coagulation factor IX and at Coagulation factor X were over 32000 nM and over 9000 nM, respectively.
On the same counts, the results for `COC(=O)[C@@H]1CCCCC1NNC(=O)C(Cc1ccccc1)c1csc2ccc(C(=N)N)cc12` (some centres undefined) are 500 nM and 90 nM.
Take `CCOC(=O)[C@@H]1CCCCC1NC(=O)[C@@H](Cc1ccccc1)c1csc2ccc(C(=N)N)cc12` (some centres undefined): the Ki on Coagulation factor IX was 120 nM; at Coagulation factor X, 180 nM.
For `N=C(N)c1ccc2scc(C(Cc3ccccc3)C(=O)Nc3ccc4ncsc4c3)c2c1` (centres undefined), the results for the Ki on Coagulation factor IX and at Coagulation factor X were 780 nM and over 8000 nM, respectively.
For `CCOC(=O)[C@@H]1CCCCC1NC(=O)[C@@H](Cc1ccccc1)c1cccc2ccc(C(=N)N)cc12` (some centres undefined), the Ki at Coagulation factor IX was 240 nM; at Coagulation factor X, 530 nM; at Trypsin, over 4200 nM.
With `Cc1ccc(F)cc1NC(=O)C(Cc1ccccc1)c1csc2ccc(C(=N)N)cc12` (centres undefined), the Ki was 960 nM at Coagulation factor IX and over 8000 nM on Coagulation factor X.
Turning to `N=C(N)c1ccc2scc(C(Cc3ccccc3)C(=O)Nc3ccc(Oc4ccccc4)cc3)c2c1` (centres undefined), the Ki is 250 nM at Coagulation factor IX and 450 nM at Coagulation factor X.
With `N=C(N)c1ccc2scc(C(Cc3ccccc3)C(=O)Nc3ccc(-n4cnc(-c5ccccc5)c4)cc3)c2c1.O=C(O)C(F)(F)F` (centres undefined), the Ki was over 6300 nM at Prothrombin, 390 nM at Coagulation factor IX, 2020 nM at Coagulation factor X and over 4200 nM at Trypsin.
In the case of `N=C(N)c1ccc2scc([C@H](Cc3ccccc3)C(=O)NC3CCCC[C@H]3C(=O)O)c2c1` (some centres undefined), the Ki came to 3500 nM at Coagulation factor IX and 200 nM on Coagulation factor X.
On the same counts, the results for `COC(=O)[C@H]1CCCCC1NNC(=O)[C@H](Cc1ccccc1)c1csc2ccc(C(=N)N)cc12` (some centres undefined) are 280 nM and 270 nM.
On to `COC(=O)[C@H]1CCCCC1NNC(=O)C(Cc1ccccc1)c1csc2ccc(C(=N)N)cc12` (some centres undefined), for which the Ki on Coagulation factor IX came to 310 nM; at Coagulation factor X, 300 nM.
On the same counts, the results for `COC(=O)[C@@H]1CCCCC1NC(=O)[C@@H](Cc1ccccc1)c1csc2ccc(C(=N)N)cc12` (some centres undefined) are 140 nM and 120 nM.
In the case of `N=C(N)c1ccc2scc(C(CC(=O)Nc3ccc(-n4cnc5ccccc54)cc3)Cc3ccccc3)c2c1.O=C(O)C(F)(F)F` (centres undefined), the Ki at Prothrombin is 4200 nM; on Coagulation factor IX, 1250 nM; on Coagulation factor X, 280 nM; at Trypsin, over 4200 nM.
For `COC(=O)[C@H]1CCCCC1NNC(=O)[C@@H](Cc1ccccc1)c1csc2ccc(C(=N)N)cc12` (some centres undefined), the Ki on Coagulation factor IX is 41300 nM; at Coagulation factor X, over 9000 nM.
As for `N=C(N)c1ccc2[nH]cc(C(Cc3ccccc3)C(=O)Nc3ccc(-c4ccccc4S(N)(=O)=O)cc3)c2c1` (centres undefined), the Ki at Prothrombin came out at 600 nM; at Trypsin, 150 nM.
The matching figures for `N=C(N)c1ccc2[nH]cc(C(Cc3ccc(N)cc3)C(=O)Nc3ccc(-n4cnc5ccccc54)cc3)c2c1.O=C(O)C(F)(F)F` (centres undefined): 4200 nM and over 4200 nM.
The matching figures for `N=C(N)c1ccc2[nH]cc(C(Cc3ccccc3)C(=O)Nc3ccc(-n4cnc5ccccc54)cc3F)c2c1.O=C(O)C(F)(F)F` (centres undefined): 13000 nM and 340 nM.
Turning to `N=C(N)c1ccc2scc([C@@H](Cc3ccccc3)C(=O)Nc3ccc4ncsc4c3)c2c1`, the results for the Ki on Coagulation factor IX and on Coagulation factor X were 480 nM and 2700 nM, respectively.
Take `N=C(N)c1ccc2scc(C(Cc3cccc4ccccc34)C(=O)Nc3ccc(-n4cnc5ccccc54)cc3)c2c1.O=C(O)C(F)(F)F` (centres undefined): the Ki at Prothrombin was over 6300 nM; at Coagulation factor IX, 230 nM; on Coagulation factor X, 740 nM; at Trypsin it was 3900 nM.
On the same counts, the results for `N=C(N)c1ccc2scc(C3(C(=O)Nc4ccc(-n5cnc6ccccc65)cc4)CC3)c2c1.O=C(O)C(F)(F)F` are 390 nM, 4900 nM, 22 nM and 60 nM.
In the case of `CC1CCC(NC(=O)C(Cc2ccccc2)c2csc3ccc(C(=N)N)cc23)CC1` (centres undefined), the Ki at Coagulation factor IX turned out to be 580 nM; at Coagulation factor X, 3240 nM.
`CCNC(=O)[C@@H]1CCCCC1NC(=O)[C@@H](Cc1ccccc1)c1csc2ccc(C(=N)N)cc12` (some centres undefined): the values for the Ki at Coagulation factor IX and on Coagulation factor X were 430 nM and 130 nM, respectively.
The matching figures for `N=C(N)c1ccc2scc(C(Cc3ccccc3)C(=O)Nc3ccc(-n4ccc(C(F)(F)F)n4)cc3)c2c1` (centres undefined): 130 nM and 410 nM.
Turning to `N=C(N)c1ccc2scc(C(Cc3ccccc3)C(=O)Nc3ccc4ncsc4c3)c2c1` (single isomer, unassigned), the results for the Ki at Coagulation factor IX and on Coagulation factor X were 14200 nM and 5700 nM, respectively.
Regarding `CCC(C(=O)Nc1ccc(-n2cnc3ccccc32)cc1)c1csc2ccc(C(=N)N)cc12.O=C(O)C(F)(F)F` (centres undefined), the Ki is over 270 nM on Prothrombin, 220 nM at Coagulation factor IX, 71 nM on Coagulation factor X and 270 nM at Trypsin.
Turning to `N=C(N)c1ccc2scc([C@H](Cc3ccccc3)C(=O)NC3CCCC[C@H]3C(=O)NCC(N)=O)c2c1` (some centres undefined), the Ki amounted to 280 nM at Coagulation factor IX and 65 nM on Coagulation factor X.
With `N=C(N)c1ccc2scc(C(Cc3ccccc3)C(=O)Nc3ccc(S(=O)(=O)Nc4ccc(Cl)nn4)cc3)c2c1` (centres undefined), the Ki at Coagulation factor IX came out at 930 nM; on Coagulation factor X, 5360 nM.
For `N=C(N)c1ccc2scc(C(Cc3ccccc3)C(=O)Nc3ccc(-n4cnc5ccccc54)cc3)c2c1.O=C(O)C(F)(F)F` (centres undefined), the Ki on Prothrombin is over 6300 nM; on Coagulation factor IX it was 98 nM; on Coagulation factor X it was 120 nM; on Trypsin, 1020 nM.

One may read the Ki as a dissociation constant, usually derived from enzyme kinetics or from competition with a known ligand. Low values mean a stronger hold on the target, high ones a looser hold on the target.
